Data reported in publication PMC9254149 (RSC Advances, 2022).

Columns and labels:
Type in all cases: cell-based, human
[1] = Cell viability by CCK-8 method; settings: human, HepG2 cells
HepG2 cells = assay: Cell viability by CCK-8 method; settings: Homo sapiens, HepG2, 24 h, read-out: IC50 (cell viability)
IR-HepG2 cells = assay: Glucose consumption in IR-HepG2 cells; settings: 24 h

IC50 (HepG2 cells)	SMILES	viability at 24 h, 10 µM [1]	viability at 24 h, 20 µM [1]	viability at 24 h, 30 µM [1]	viability at 24 h, 40 µM [1]	viability at 24 h, 50 µM [1]	Glucose consumption (IR-HepG2 cells; 2.5 μM)	Glucose consumption (IR-HepG2 cells; 10.0 μM)	Glucose consumption (IR-HepG2 cells; 12.5 μM)	Glucose consumption (IR-HepG2 cells; 15 μM)	Glucose consumption (IR-HepG2 cells; 5.0 μM)
> 50 µM	C[C@@H]1O[C@@H](O[C@H]2[C@H](O[C@H]3CC[C@@]4(C)[C@@H](CC[C@]5(C)[C@@H]4CC=C4[C@@H]6CC(C)(C)CC[C@]6(C(=O)O)CC[C@]45C)[C@]3(C)CO)OC[C@H](O)[C@@H]2O)[C@H](O)[C@H](O)[C@H]1O [Compound 5, α-hederin]	98.57 ± 0.57%	93.4 ± 1.23%	89.4 ± 1.16%	76.1 ± 1.73%	73.3 ± 2.58%	6.31 ± 0.96 mM	7.75 ± 0.84 mM	8.97 ± 0.37 mM	9.99 ± 0.95 mM	–
34 µM	CC(C)=CCCC(C)(O)C(O)CCC(C)CCO (stereo not drawn) [Compound 3, 2,6,10-trimethyl-6,7,12-trihydroxy-dodec-2-ene]	94.8 ± 1.94%	83.5 ± 3.68%	60.3 ± 3.33%	36.3 ± 1.62%	33.4 ± 1.9%	2.06 ± 1.27 mM	2.66 ± 0.56 mM	2.86 ± 0.71 mM	2.44 ± 0.60 mM	2.43 ± 0.67 mM
